Test results taken from US20110081315A1, “NOVEL MACROCYCLIC INHIBITORS OF HEPATITIS C VIRUS REPLICATION” (INTERMUNE, INC., priority 2009, published 2011).
pEC50, pIC50: −log10 of the molar value.

Tests used:
hepatitis C replicon = hepatitis C replicon EC50 assay; assay type: cell-based; details: Hepatitis C virus; hepatitis C replicon; read-out: EC50
Source text: (§1) NS3-NS4 inhibition activity can be determined using known assay methods. For example, NS3/NS4 complexes may be formed and inhibitory concentrations of test compounds determined as described in U.S. Patent Application Publication Number 2007/0054842 paragraph numbers 1497-1509, which is incorporated herein by reference in its entirety. Similarly, hepatitis C replicon EC50 may be determined using known assay methods such as described in U.S. Patent Application Publication Number 2007/0054842 paragraph numbers 1510-1515, which is incorporated herein by reference in its entirety. Assays may be conducted at ambient temperature (23° C.) in assay buffer containing 50 mM Tris-HCl, pH 7.5, 15% glycerol, 0.6 mM Lauryldimethylamine Oxide (LDAO), 25 μM NS4A peptide, and 10 mM Dithiothreitol (DTT).

NS3/NS4 complexes = NS3/NS4 complexes (Hepatitis C virus genotype 1a, UniProt P27958); test: NS3/NS4 inhibition assay (IC50); assay type: biochemical; details: NS3/NS4 activity; 23° C., 25 μM NS4A peptide
Source text: as §1

Sequence of NS3/NS4 complexes (P27958 1027-1657, one chain of several): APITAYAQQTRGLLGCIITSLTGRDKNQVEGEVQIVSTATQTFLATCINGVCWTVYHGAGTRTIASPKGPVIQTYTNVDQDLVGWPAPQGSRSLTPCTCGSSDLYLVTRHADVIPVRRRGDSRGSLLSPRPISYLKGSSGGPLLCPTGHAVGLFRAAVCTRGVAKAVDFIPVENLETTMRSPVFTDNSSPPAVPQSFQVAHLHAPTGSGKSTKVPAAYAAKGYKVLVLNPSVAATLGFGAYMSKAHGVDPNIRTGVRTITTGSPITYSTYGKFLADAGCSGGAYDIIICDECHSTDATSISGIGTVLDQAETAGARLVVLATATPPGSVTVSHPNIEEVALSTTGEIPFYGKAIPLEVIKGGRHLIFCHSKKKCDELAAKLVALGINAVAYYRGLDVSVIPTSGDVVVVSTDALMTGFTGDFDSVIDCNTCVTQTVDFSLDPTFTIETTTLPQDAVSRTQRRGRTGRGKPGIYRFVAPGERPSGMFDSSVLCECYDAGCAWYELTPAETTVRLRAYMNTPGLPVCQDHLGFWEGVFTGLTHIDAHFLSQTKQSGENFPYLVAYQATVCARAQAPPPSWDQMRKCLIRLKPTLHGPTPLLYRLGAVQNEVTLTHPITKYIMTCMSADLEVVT

| Structure (SMILES) | pEC50 (hepatitis C replicon) | pIC50 (NS3/NS4 complexes) |
| --- | --- | --- |
| Cc1cnc(-c2cccc3c2nc(O[C@@H]2C[C@H]4C(=O)N[C@]5(C(=O)NS(=O)(=O)C6CC6)C[C@H]5/C=C\CCCCC[C@H](NC(=O)OC(C)(C)C)C(=O)N4C2)n3C(C)C)s1 [Compound 216] | > 8.00 | > 8.00 |
| Cc1nc(-c2cccc3c2nc(O[C@@H]2C[C@H]4C(=O)N[C@]5(C(=O)NS(=O)(=O)C6CC6)C[C@H]5/C=C\CCCCC[C@H](NC(=O)OC(C)(C)C)C(=O)N4C2)n3C(C)C)sc1C [Compound 217] | > 8.00 | > 8.00 |
| CC(C)c1csc(-c2cccc3c2nc(O[C@@H]2C[C@H]4C(=O)N[C@]5(C(=O)NS(=O)(=O)C6CC6)C[C@H]5/C=C\CCCCC[C@H](NC(=O)OC(C)(C)C)C(=O)N4C2)n3C(C)C)n1 [Compound 218] | > 8.00 | > 8.00 |
| Cc1sc(-c2cccc3c2nc(O[C@@H]2C[C@H]4C(=O)N[C@]5(C(=O)NS(=O)(=O)C6CC6)C[C@H]5/C=C\CCCCC[C@H](NC(=O)OC(C)(C)C)C(=O)N4C2)n3C(C)C)nc1C(C)C [Compound 219] | > 8.00 | > 8.00 |
| CC(C)n1c(O[C@@H]2C[C@H]3C(=O)N[C@]4(C(=O)NS(=O)(=O)C5CC5)C[C@H]4/C=C\CCCCC[C@H](NC(=O)OC(C)(C)C)C(=O)N3C2)nc2c(-c3nc(C(C)(C)C)cs3)cccc21 [Compound 220] | > 8.00 | > 8.00 |
| CC(C)n1c(O[C@@H]2C[C@H]3C(=O)N[C@]4(C(=O)NS(=O)(=O)C5CC5)C[C@H]4/C=C\CCCCC[C@H](NC(=O)OC(C)(C)C)C(=O)N3C2)nc2c(-c3nc(-c4ccccc4)cs3)cccc21 [Compound 221] | > 8.00 | > 8.00 |
| CC(C)n1c(O[C@@H]2C[C@H]3C(=O)N[C@]4(C(=O)NS(=O)(=O)C5CC5)C[C@H]4/C=C\CCCCC[C@H](NC(=O)OC(C)(C)C)C(=O)N3C2)nc2c(-c3cc(C(F)(F)F)nn3C)cccc21 [Compound 222] | > 8.00 | > 8.00 |
| CC(C)n1c(O[C@@H]2C[C@H]3C(=O)N[C@]4(C(=O)NS(=O)(=O)C5CC5)C[C@H]4/C=C\CCCCC[C@H](NC(=O)OC(C)(C)C)C(=O)N3C2)nc2c(-c3cncs3)cccc21 [Compound 223] | > 8.00 | > 8.00 |
| CC(C)n1c(O[C@@H]2C[C@H]3C(=O)N[C@]4(C(=O)NS(=O)(=O)C5CC5)C[C@H]4/C=C\CCCCC[C@H](NC(=O)OC(C)(C)C)C(=O)N3C2)nc2c(Br)cccc21 [Compound 224] | > 8.00 | > 8.00 |
| C=Cc1cccc2c1nc(O[C@@H]1C[C@H]3C(=O)N[C@]4(C(=O)NS(=O)(=O)C5CC5)C[C@H]4/C=C\CCCCC[C@H](NC(=O)OC(C)(C)C)C(=O)N3C1)n2C(C)C [Compound 225] | > 8.00 | > 8.00 |
| CC(C)n1c(O[C@@H]2C[C@H]3C(=O)N[C@]4(C(=O)NS(=O)(=O)N(C)C)C[C@H]4/C=C\CCCCC[C@H](NC(=O)OC(C)(C)C)C(=O)N3C2)nc2c(-c3nccs3)cccc21 [Compound 226] | > 8.00 | > 8.00 |
| CC(C)n1c(O[C@@H]2C[C@H]3C(=O)N[C@]4(C(=O)NS(=O)(=O)N(C)C)C[C@H]4/C=C\CCCCC[C@H](NC(=O)OC(C)(C)C)C(=O)N3C2)nc2c(-c3ncco3)cccc21 [Compound 227] | > 8.00 | > 8.00 |
| Cc1csc(-c2cccc3c2nc(O[C@@H]2C[C@H]4C(=O)N[C@]5(C(=O)NS(=O)(=O)N(C)C)C[C@H]5/C=C\CCCCC[C@H](NC(=O)OC(C)(C)C)C(=O)N4C2)n3C(C)C)n1 [Compound 228] | > 8.00 | > 8.00 |
| Cc1cnc(-c2cccc3c2nc(O[C@@H]2C[C@H]4C(=O)N[C@]5(C(=O)NS(=O)(=O)N(C)C)C[C@H]5/C=C\CCCCC[C@H](NC(=O)OC(C)(C)C)C(=O)N4C2)n3C(C)C)s1 [Compound 229] | > 8.00 | > 8.00 |
| Cc1sc(-c2cccc3c2nc(O[C@@H]2C[C@H]4C(=O)N[C@]5(C(=O)NS(=O)(=O)N(C)C)C[C@H]5/C=C\CCCCC[C@H](NC(=O)OC(C)(C)C)C(=O)N4C2)n3C(C)C)nc1C(C)C [Compound 231] | 7.00 to 8.00 | > 8.00 |
| CC(C)n1c(O[C@@H]2C[C@H]3C(=O)N[C@]4(C(=O)NS(=O)(=O)N(C)C)C[C@H]4/C=C\CCCCC[C@H](NC(=O)OC(C)(C)C)C(=O)N3C2)nc2c(-c3nc(C(C)(C)C)cs3)cccc21 [Compound 232] | 7.00 to 8.00 | > 8.00 |
| CC(C)n1c(O[C@@H]2C[C@H]3C(=O)N[C@]4(C(=O)NS(=O)(=O)N(C)C)C[C@H]4/C=C\CCCCC[C@H](NC(=O)OC(C)(C)C)C(=O)N3C2)nc2c(-c3nc(-c4ccccc4)cs3)cccc21 [Compound 233] | 7.00 to 8.00 | > 8.00 |
| CC(C)n1c(O[C@@H]2C[C@H]3C(=O)N[C@]4(C(=O)NS(=O)(=O)C5(C)CC5)C[C@H]4/C=C\CCCCC[C@H](NC(=O)OC(C)(C)C)C(=O)N3C2)nc2c(-c3nccs3)cccc21 [Compound 234] | > 8.00 | > 8.00 |

| Structure (SMILES) | pEC50 (hepatitis C replicon) | pIC50 (NS3/NS4 complexes) |
| --- | --- | --- |
| CC(C)n1c(O[C@@H]2C[C@H]3C(=O)N[C@]4(C(=O)NS(=O)(=O)C5(C)CC5)C[C@H]4/C=C\CCCCC[C@H](NC(=O)OC(C)(C)C)C(=O)N3C2)nc2c(-c3ncco3)cccc21 [Compound 235] | > 8.00 | > 8.00 |
| Cc1sc(-c2cccc3c2nc(O[C@@H]2C[C@H]4C(=O)N[C@]5(C(=O)NS(=O)(=O)C6(C)CC6)C[C@H]5/C=C\CCCCC[C@H](NC(=O)OC(C)(C)C)C(=O)N4C2)n3C(C)C)nc1C(C)C [Compound 237] | > 8.00 | > 8.00 |
| CC(C)n1c(O[C@@H]2C[C@H]3C(=O)N[C@]4(C(=O)NS(=O)(=O)C5(C)CC5)C[C@H]4/C=C\CCCCC[C@H](Nc4ccccc4)C(=O)N3C2)nc2c(-c3ccc(F)cc3)cccc21 [Compound 238] | 7.00 to 8.00 | > 8.00 |
| CC(C)n1c(O[C@@H]2C[C@H]3C(=O)N[C@]4(C(=O)NS(=O)(=O)C5(C)CC5)C[C@H]4/C=C\CCCCC[C@H](Nc4ccccc4)C(=O)N3C2)nc2c(-c3cccc(F)c3)cccc21 [Compound 239] | 7.00 to 8.00 | > 8.00 |
| CC(C)n1c(O[C@@H]2C[C@H]3C(=O)N[C@]4(C(=O)NS(=O)(=O)C5(C)CC5)C[C@H]4/C=C\CCCCC[C@H](Nc4ccccc4)C(=O)N3C2)nc2c(-c3ccc(C#N)cc3)cccc21 [Compound 240] | 7.00 to 8.00 | > 8.00 |
| CC(C)n1c(O[C@@H]2C[C@H]3C(=O)N[C@]4(C(=O)NS(=O)(=O)C5(C)CC5)C[C@H]4/C=C\CCCCC[C@H](Nc4ccccc4)C(=O)N3C2)nc2c(-c3cccc(C#N)c3)cccc21 [Compound 241] | 7.00 to 8.00 | > 8.00 |
| CC(C)n1c(O[C@@H]2C[C@H]3C(=O)N[C@]4(C(=O)NS(=O)(=O)C5(C)CC5)C[C@H]4/C=C\CCCCC[C@H](Nc4ccccc4)C(=O)N3C2)nc2c(-c3ccccc3F)cccc21 [Compound 242] | 7.00 to 8.00 | > 8.00 |
| CC(C)n1c(O[C@@H]2C[C@H]3C(=O)N[C@]4(C(=O)NS(=O)(=O)C5(C)CC5)C[C@H]4/C=C\CCCCC[C@H](Nc4ccccc4)C(=O)N3C2)nc2c(-c3ccc(F)c(F)c3)cccc21 [Compound 243] | < 7.00 | > 8.00 |
| COc1cccc(-c2cccc3c2nc(O[C@@H]2C[C@H]4C(=O)N[C@]5(C(=O)NS(=O)(=O)C6(C)CC6)C[C@H]5/C=C\CCCCC[C@H](Nc5ccccc5)C(=O)N4C2)n3C(C)C)c1 [Compound 244] | 7.00 to 8.00 | > 8.00 |
| Cc1cc(F)cc(-c2cccc3c2nc(O[C@@H]2C[C@H]4C(=O)N[C@]5(C(=O)NS(=O)(=O)C6(C)CC6)C[C@H]5/C=C\CCCCC[C@H](Nc5ccccc5)C(=O)N4C2)n3C(C)C)c1 [Compound 245] | < 7.00 | > 8.00 |
| CC(C)n1c(O[C@@H]2C[C@H]3C(=O)N[C@]4(C(=O)NS(=O)(=O)C5(C)CC5)C[C@H]4/C=C\CCCCC[C@H](Nc4ccccc4)C(=O)N3C2)nc2c(-c3ccc(F)c(C(F)(F)F)c3)cccc21 [Compound 246] | < 7.00 | > 8.00 |
| CC(C)n1c(O[C@@H]2C[C@H]3C(=O)N[C@]4(C(=O)NS(=O)(=O)C5(C)CC5)C[C@H]4/C=C\CCCCC[C@H](Nc4ccccc4)C(=O)N3C2)nc2c(-c3cccc(OC(F)(F)F)c3)cccc21 [Compound 247] | < 7.00 | > 8.00 |
| CC(C)n1c(O[C@@H]2C[C@H]3C(=O)N[C@]4(C(=O)NS(=O)(=O)C5(C)CC5)C[C@H]4/C=C\CCCCC[C@H](Nc4ccccc4)C(=O)N3C2)nc2c(-c3cccc(C(=O)N(C)C)c3)cccc21 [Compound 248] | 7.00 to 8.00 | > 8.00 |
| CC(C)n1c(O[C@@H]2C[C@H]3C(=O)N[C@]4(C(=O)NS(=O)(=O)C5(C)CC5)C[C@H]4/C=C\CCCCC[C@H](Nc4ccccc4)C(=O)N3C2)nc2c(-c3ccc(OC(F)(F)F)cc3)cccc21 [Compound 249] | < 7.00 | > 8.00 |
| Cc1ccccc1-c1cccc2c1nc(O[C@@H]1C[C@H]3C(=O)N[C@]4(C(=O)NS(=O)(=O)C5(C)CC5)C[C@H]4/C=C\CCCCC[C@H](Nc4ccccc4)C(=O)N3C1)n2C(C)C [Compound 250] | < 7.00 | > 8.00 |
| CC(C)n1c(O[C@@H]2C[C@H]3C(=O)N[C@]4(C(=O)NS(=O)(=O)C5(C)CC5)C[C@H]4/C=C\CCCCC[C@H](Nc4ccccc4)C(=O)N3C2)nc2c(-c3cccc(C(F)(F)F)c3)cccc21 [Compound 251] | < 7.00 | > 8.00 |
| CC(C)n1c(O[C@@H]2C[C@H]3C(=O)N[C@]4(C(=O)NS(=O)(=O)C5(C)CC5)C[C@H]4/C=C\CCCCC[C@H](Nc4ccccc4)C(=O)N3C2)nc2c(-c3ccoc3)cccc21 [Compound 252] | 7.00 to 8.00 | > 8.00 |
